Assay type in all cases: cell-based
One test addresses T1, KRAS G12D-cRAF (Homo sapiens, UniProt P01116, G12D).
T1 construct: expressed in transfected cells
Briefly: Cellular KRAS G12D-cRAF Binding Inhibition Assay (NanoBRET, AD293 stable cells). The procedure, abridged: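 IC50 values derive from fitted % inhibition, normalised to maximum signal and medium-only blank. The read-out is NanoBRET between KRAS G12D-NanoLuc (donor) and cRAF RBD-HaloTag labelled with the 618 ligand (acceptor), in live stably transfected AD293 cells at 1×10^4/well.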

In another test the target is T2, KRAS G12V-cRAF (Homo sapiens, UniProt P01116, G12V).
T2 construct: expressed in transfected cells
T2 sequence (P01116 1-188 isoform P01116-2 G12V): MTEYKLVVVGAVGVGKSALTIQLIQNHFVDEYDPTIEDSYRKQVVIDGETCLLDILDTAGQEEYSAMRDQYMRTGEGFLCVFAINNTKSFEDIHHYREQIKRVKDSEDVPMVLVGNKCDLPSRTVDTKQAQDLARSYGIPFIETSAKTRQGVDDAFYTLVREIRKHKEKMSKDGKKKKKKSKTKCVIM
Briefly: Cellular KRAS G12V-cRAF Binding Inhibition Assay (NanoBRET, AD293 stable cells). In short, it runs like this: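 Binding measured as BRET between NanoLuc and HaloTag-bound NanoBRET 618 ligand (added overnight) in stably expressing AD293 cells. Signals were converted to percent inhibition against max and blank wells and fitted for IC50.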
(In general: In BRET a luciferase serves as donor, and the signal depends on an acceptor being close.)

Test [1] concerns KRAS-G12V mutant tumor cells SW620. Briefly: Cell Proliferation Inhibition Assay (SW620), Cell-titer GLO, 96 h. As to conditions: Homo sapiens, SW-620, 96 h, read-out: SW620(G12V). In short, it runs like this:
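Readout: Cell-titer GLO luminescence after 96 h at 37°C, converted to percent inhibition against 0.5% DMSO and blank controls, with IC50 from curve fit. Low-attachment SW620 cultures (1×10^3 cells/well) were dosed at 10000–0.03 nM final.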

Test [2] deals with KRAS-G12D mutant tumor cells AGS. Briefly: Cell Proliferation Inhibition Assay (AGS), Cell-titer GLO, 96 h. The settings on record: Homo sapiens, AGS, 96 h, read-out: AGS(G12D). The procedure, abridged:
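Inhibition % was derived from CellTiter-Glo luminescence (max minus measured, over max minus blank) and fitted to give IC50. Cells were KRAS-G12D AGS in low-attachment wells, treated for 96 h at 37°C.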

[3] abbreviates: 3 h incubation, read-out: NanoBRET KRAS G12D.
Setting [4] is: 3 h incubation, read-out: NanoBRET KRAS G12V.
The mark [5] stands for this setting: SW620 cells, 96 h incubation, Cell-titer GLO.
Where [6] appears, read: AGS cells, 96 h incubation, Cell-titer GLO.

These results are taken from patent publication EP4800018A1, “PAN-KRAS INHIBITOR AND USE THEREOF IN MEDICINES” (Betta Pharmaceuticals Co., Ltd., priority 2023, dated 2025).

Structures are written as SMILES. Where two headings read alike, the source gives them in different places.

T1 sequence (P01116 1-188 isoform P01116-2 G12D): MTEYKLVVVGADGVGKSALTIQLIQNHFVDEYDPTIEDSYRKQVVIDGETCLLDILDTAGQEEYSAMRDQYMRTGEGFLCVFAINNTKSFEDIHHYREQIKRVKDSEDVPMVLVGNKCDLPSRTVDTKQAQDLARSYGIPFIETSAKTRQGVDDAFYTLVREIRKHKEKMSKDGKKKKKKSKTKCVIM

As to `CC1OCCCn2c(c3c4cc(ccc42)-c2csc(n2)CC(NC(=O)C2CC2C(F)F)C(=O)N2CCCC(N2)C(=O)OCC(C)(C)C3)-c2cc(OC3CCN(C)CC3)cnc21` [Example 97, (1S,2S)-2-(difluoromethyl)-N-((1^5S,6^3S,4S,Z)-1^5,10,10-trimethyl-1^2-((1-methylpiperidin-4-yl)oxy)-5,7-dioxo-1^8,1^9,6^1,6^2,6^3,6^4,6^5,6^6-octahydro-1^5H,1^7H-8-oxa-1(13,15)-pyrido[3',2':7,8][1,5]oxazonino[5,6-a]indola-2(4,2)-thiazola-6(1,3)-pyridazinacycloundecaphane-4-yl)cyclopropane-1-carb oxamide], the IC50 worked out at 11.9 nM at KRAS G12D-cRAF (setting [3]), 61.8 nM on KRAS G12V-cRAF (setting [4]), 0.42 nM in test [1] (setting [5]) and 2.69 nM in test [2] (setting [6]).
The matching figures for `CC1OCCCn2c(c3c4cc(ccc42)-c2csc(n2)CC(NC(=O)C24CC(C)(C2)C4)C(=O)N2CCCC(N2)C(=O)OCC(C)(C)C3)-c2cc(N3CCN(CC(F)F)CC3)cnc21` [Example 98, N-((1^5S,6^3S,4S,Z)-1^2-(4-(2,2-difluoroethyl)piperazin-1-yl)-1^5,10,10-trimethyl-5,7-dioxo-1^8,1^9,6^1, 6^2,6^3,6^4,6^5,6^6-octahydro-1^5H,1^7H-8-oxa-1(13,15)-pyrido[3',2':7,8][1,5]oxazonino[5,6-a]indola-2(4,2)-thiazola-6(1,3)-pyridazinacycloundecaphane-4-yl)-3-methylbicyclo[1.1.1]pentane-1-carbox amide]: 14.8 nM, 61.7 nM, 3.87 nM and 13.2 nM.
Take `CC1OCCCn2c(c3c4cc(ccc42)-c2csc(n2)CC(NC(=O)C2CC2C(F)F)C(=O)N2CCCC(N2)C(=O)OCC(C)(C)C3)-c2cc(N3CC(N4CCN(C)CC4)C3)cnc21` [Example 99, (1S,2S)-2-(difluoromethyl)-N-((1^5S,6^3S,4S,Z)-1^5,10,10-trimethyl-1^2-(3-(4-methylpiperazin-1-yl)azetidin-1-yl)-5,7-dioxo-1^8,1^9,6^1,6^2,6^3,6^4,6^5,6^6-octahydro-1^5H,1^7H-8-oxa-1(13,15)-pyrido[3',2':7, 8][1,5]oxazonino[5,6-a]indola-2(4,2)-thiazola-6(1,3)-pyridazinacycloundecaphane-4-yl)cyclopro pane-1-carboxamide]: the IC50 at KRAS G12D-cRAF (setting [3]) was determined as 4.25 nM; at KRAS G12V-cRAF (setting [4]), 13.3 nM; in test [1], 0.14 nM; in test [2], 0.74 nM.
In the case of `C[C@@H]1OCCCn2c(c3c4cc(ccc42)-c2csc(n2)C[C@H](NC(=O)[C@H]2C[C@@H]2C(F)F)C(=O)N2CCC[C@H](N2)C(=O)OCC(C)(C)C3)-c2cc(N3CC4(CCN(C)CC4)C3)cnc21` [Example 100, (1S,2S)-2-(difluoromethyl)-N-((1^5S,6^3S,4S,Z)-1^5,10,10-trimethyl-1^2-(7-methyl-2,7-diazaspiro[3. 5]nonan-2-yl)-5,7-dioxo-1^8,1^9,6^1,6^2,6^3,6^4,6^5,6^6-octahydro-1^5H,1^7H-8-oxa-1(13,15)-pyrido[3',2':7, 8][1,5]oxazonino[5,6-a]indola-2(4,2)-thiazola-6(1,3)-pyridazinacycloundecaphane-4-yl)cyclopro pane-1-carboxamide], the IC50 on KRAS G12D-cRAF (read-out: NanoBRET KRAS G12D, 3 h incubation) amounted to 4.55 nM; at KRAS G12V-cRAF (read-out: NanoBRET KRAS G12V, 3 h incubation) it was 21.7 nM; in test [1], 0.1 nM; in test [2] it was 0.44 nM.
For the compound `COCCN1CCN(c2cnc3c(c2)-c2c4c5cc(ccc5n2CCCOC3C)-c2csc(n2)CC(NC(=O)C2CC2C(F)F)C(=O)N2CCCC(N2)C(=O)OCC(C)(C)C4)CC1` [Example 101, (1S,2S)-2-(difluoromethyl)-N-((1^5S,6^3S,4S,Z)-1^2-(4-(2-methoxyethyl)piperazin-1-yl)-1^5,10,10-trimethyl-5,7-dioxo-1^8,1^9,6^1,6^2,6^3,6^4,6^5,6^6-octahydro-1^5H,1^7H-8-oxa-1(13,15)-pyrido[3',2':7,8][1,5]oxazonino[5,6-a]indola-2(4,2)-thiazola-6(1,3)-pyridazinacycloundecaphane-4-yl)cyclopropane-1-carboxamide], the IC50 is 2.74 nM on KRAS G12D-cRAF (setting [3]), 12 nM on KRAS G12V-cRAF (setting [4]), 0.26 nM in test [1] (setting [5]) and 1.4 nM in test [2] (setting [6]).
On the same counts, the results for `CC1OCCCn2c(c3c4cc(ccc42)-c2csc(n2)CC(NC(=O)C2CC2C(F)F)C(=O)N2CCCC(N2)C(=O)OCC(C)(C)C3)-c2cc(N3CCC(N4CCN(C)CC4)CC3)cnc21` [Example 102, (1S,2S)-2-(difluoromethyl)-N-((1^5S,6^3S,4S,Z)-1^5,10,10-trimethyl-1^2-(4-(4-methylpiperazin-1-yl)piperidin-1-yl)-5,7-dioxo-1^8,1^9,6^1,6^2,6^3,6^4,6^5,6^6-octahydro-1^5H,1^7H-8-oxa-1(13,15)-pyrido[3',2':7 ,8][1,5]oxazonino[5,6-a]indola-2(4,2)-thiazola-6(1,3)-pyridazinacycloundecaphane-4-yl)cyclopr opane-1-carboxamide] are 4.13 nM, 14.7 nM, 0.17 nM and 0.38 nM.
On the same counts, the results for `CC1OCCCn2c(c3c4cc(ccc42)-c2csc(n2)CC(NC(=O)C2CC2C(F)F)C(=O)N2CCCC(N2)C(=O)OCC(C)(C)C3)-c2cc(N3CCC4(CCN(C)CC4)CC3)cnc21` [Example 103, (1S,2S)-2-(difluoromethyl)-N-((1^5S,6^3S,4S,Z)-1^5,10,10-trimethyl-1^2-(9-methyl-3,9-diazaspiro[5. 5]undecan-3-yl)-5,7-dioxo-1^8,1^9,6^1,6^2,6^3,6^4,6^5,6^6-octahydro-1^5H,1^7H-8-oxa-1(13,15)-pyrido[3',2': 7,8][1,5]oxazonino[5,6-a]indola-2(4,2)-thiazola-6(1,3)-pyridazinacycloundecaphane-4-yl)cyclop ropane-1-carboxamide] are 7.74 nM, 22.2 nM, 0.21 nM and 0.85 nM.
On to `CC1OCCCn2c(c3c4cc(ccc42)-c2csc(n2)CC(NC(=O)C2CC2C(F)F)C(=O)N2CCCC(N2)C(=O)OCC(C)(C)C3)-c2cc(N3CCN(C4CCN(C)CC4)CC3)cnc21` [Example 104, (1S,2S)-2-(difluoromethyl)-N-((1^5S,6^3S,4S,Z)-1^5,10,10-trimethyl-1^2-(4-(1-methylpiperidin-4-yl)piperazin-1-yl)-5,7-dioxo-1^8,1^9,6^1,6^2,6^3,6^4,6^5,6^6-octahydro-1^5H,1^7H-8-oxa-1(13,15)-pyrido[3',2': 7,8][1,5]oxazonino[5,6-a]indola-2(4,2)-thiazola-6(1,3)-pyridazinacycloundecaphane-4-yl)cyclop ropane-1-carboxamide], for which the IC50 was found to be 3.2 nM at KRAS G12D-cRAF (setting [3]), 11.8 nM on KRAS G12V-cRAF (setting [4]), 0.2 nM in test [1] (setting [5]) and 0.63 nM in test [2] (setting [6]).
The matching figures for `CC1OCCCn2c(c3c4cc(ccc42)-c2csc(n2)CC(NC(=O)C2CC2C(F)F)C(=O)N2CCCC(N2)C(=O)OCC(C)(C)C3)-c2cc(N3CCC(N(C)C)CC3)cnc21` [Example 105, (1S,2S)-2-(difluoromethyl)-N-((1^5S,6^3S,4S,Z)-1^2-(4-(dimethylamino)piperidin-1-yl)-1^5,10,10-trimethyl-5,7-dioxo-1^8,1^9,6^1,6^2,6^3,6^4,6^5,6^6-octahydro-1^5H,1^7H-8-oxa-1(13,15)-pyrido[3',2':7,8][1,5]oxazonino[5,6-a]indola-2(4,2)-thiazola-6(1,3)-pyridazinacycloundecaphane-4-yl)cyclopropane-1-carboxamide]: 4.55 nM, 16.6 nM, 0.24 nM and 0.69 nM.
The matching figures for `CC1OCCCn2c(c3c4cc(ccc42)-c2csc(n2)CC(NC(=O)C2CC2C(F)F)C(=O)N2CCCC(N2)C(=O)OCC(C)(C)C3)-c2cc(N3CCC(N4CCOCC4)CC3)cnc21` [Example 106, (1S,2S)-2-(difluoromethyl)-N-((1^5S,6^3S,4S,Z)-1^5,10,10-trimethyl-1^2-(4-morpholinopiperidin-1-yl)-5,7-dioxo-1^8,1^9,6^1,6^2,6^3,6^4,6^5,6^6-octahydro-1^5H,1^7H-8-oxa-1(13,15)-pyrido[3',2':7,8][1,5]oxazonino[5,6-a]indola-2(4,2)-thiazola-6(1,3)-pyridazinacycloundecaphane-4-yl)cyclopropane-1-carb oxamide]: 6.39 nM, 27.4 nM, 0.24 nM and 0.86 nM.
